What was measured:
[1] = biological target: PDGFRβ (purified cytoplasmic domain PDGFR-b protein) (Homo sapiens (Human), UniProt P09619); experiment: PDGFRβ Kinase Assay; type: biochemical; conditions: for IC50: 36 μM ATP, poly-Glu-Tyr (4:1) substrate, ELISA read-out, read-out: PDGFRβ Enzyme Assay (IC50 nM)
Method: Biochemical PDGFRβ kinase assays were performed in 96 well microtiter plates that were coated overnight with 75 μg of poly-Glu-Tyr (4:1) in 10 mM Phosphate Buffered Saline (PBS), pH 7.4. The coated plates were washed with 2 mls per well PBS+0.05% Tween-20 (PBS-T), blocked by incubation with PBS containing 1% BSA, then washed with 2 mls per well PBS-T prior to starting the reaction. Reactions were carried out in 100 μL reaction volumes containing 36 μM ATP in kinase buffer (50 mM Hepes buffer pH 7.4, 20 mM MgCl2, 0.1 mM MnCl2 and 0.2 mM Na3VO4). Test compounds were reconstituted in 100% DMSO and added to the reaction to give a final DMSO concentration of 5%. Reactions were initiated by the addition 20 ul per well of kinase buffer containing 200-300 ng purified cytoplasmic domain PDGFR-b protein (Millipore). Following a 60 minute incubation at 30° C., the reactions were washed 2 mls per well PBS-T. 100 μl of a monoclonal anti-phosphotyrosine antibody-peroxidase conjugate diluted 1:10,000 in PBS-T was added to the wells for 30 minutes. Following a 2 mls per well wash with PBS-Tween-20, 100 μl of O-Phenylenediamine Dihydrochloride in phosphate-citrate buffer, containing urea hydrogen peroxide, was added to the wells for 7-10 minutes as a colorimetric substrate for the peroxidase. The reaction was terminated by the addition of 100 μl of 2.5N H2SO4 to each well and read using a microplate ELISA reader set at 492 nm. IC50 values for compound inhibition were calculated directly from graphs of optical density (arbitrary units) versus compound concentration following subtraction of blank values.

PDGFRβ = PDGFRβ (Homo sapiens (Human), UniProt P09619); experiment: PDGFRβ Cellular Assay (FLIPR, PDGF-induced intracellular calcium in NHDF-Ad); type: cell-based; conditions: PDGF-BB stimulation (30 ng/mL), Fluo-4 FLIPR
PDGFRβ, sequence (P09619 33-1106): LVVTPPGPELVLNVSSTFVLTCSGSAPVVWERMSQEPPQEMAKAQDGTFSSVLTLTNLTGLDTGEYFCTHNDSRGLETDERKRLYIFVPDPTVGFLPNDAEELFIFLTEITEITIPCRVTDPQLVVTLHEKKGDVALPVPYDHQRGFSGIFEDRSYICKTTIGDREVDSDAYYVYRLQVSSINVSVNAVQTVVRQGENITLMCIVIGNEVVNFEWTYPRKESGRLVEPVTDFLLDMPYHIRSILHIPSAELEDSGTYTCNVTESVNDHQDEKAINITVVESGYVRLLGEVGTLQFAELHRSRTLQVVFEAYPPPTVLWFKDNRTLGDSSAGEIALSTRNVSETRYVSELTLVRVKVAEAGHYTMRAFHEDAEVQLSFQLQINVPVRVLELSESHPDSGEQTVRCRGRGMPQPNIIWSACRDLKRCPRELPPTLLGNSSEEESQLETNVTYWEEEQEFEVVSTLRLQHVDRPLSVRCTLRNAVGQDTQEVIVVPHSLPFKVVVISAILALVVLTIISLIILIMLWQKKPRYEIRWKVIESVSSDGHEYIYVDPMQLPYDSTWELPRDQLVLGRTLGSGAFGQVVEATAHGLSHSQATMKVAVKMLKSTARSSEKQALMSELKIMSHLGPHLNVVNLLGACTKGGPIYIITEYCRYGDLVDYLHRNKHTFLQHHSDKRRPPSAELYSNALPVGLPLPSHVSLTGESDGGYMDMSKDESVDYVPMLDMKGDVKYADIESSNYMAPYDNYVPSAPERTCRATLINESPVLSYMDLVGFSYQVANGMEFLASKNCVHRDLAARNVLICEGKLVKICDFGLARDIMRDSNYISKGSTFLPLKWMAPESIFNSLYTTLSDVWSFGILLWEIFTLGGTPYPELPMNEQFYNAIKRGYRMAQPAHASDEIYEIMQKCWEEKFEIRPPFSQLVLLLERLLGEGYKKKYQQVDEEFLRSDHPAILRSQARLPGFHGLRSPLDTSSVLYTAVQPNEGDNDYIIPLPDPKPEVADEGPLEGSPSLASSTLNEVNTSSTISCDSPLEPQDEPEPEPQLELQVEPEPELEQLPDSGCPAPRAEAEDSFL
Method: Automated FLIPR (Fluorometric Imaging Plate Reader) technology was used to screen for inhibitors of PDGF-induced increases in intracellular calcium levels in fluorescent dye loaded […] cells. NHDF-Ad (Normal Human Dermal Fibroblasts, Adult; Lonza) were seeded in 384-well fibronectin coated black-walled plates overnight @ 37° C./5% CO2. Cells were loaded with calcium indicator Fluo-4 for 45 minutes at 37° C. Cells were washed 2 times (E1×405, Biotek Instruments) to remove extracellular dye. For screening, cells were pre-incubated with test agents for 30 minutes, at a single concentration (10 uM) or at concentrations ranging from 0.0001 to 10.0 uM followed by PDGF-BB stimulation (30 ng/mL). Changes in fluorescence at 516 nm were measured simultaneously in all 384 wells using a cooled CCD camera. Data were generated by determining max-min fluorescence levels for unstimulated, stimulated, and drug treated samples. IC50 values for test compounds were calculated from % inhibition of PDGF-BB stimulated responses in the absence of inhibitor.

PDGFRβ (purified cytoplasmic domain PDGFR-b protein), sequence (P09619 554-1106): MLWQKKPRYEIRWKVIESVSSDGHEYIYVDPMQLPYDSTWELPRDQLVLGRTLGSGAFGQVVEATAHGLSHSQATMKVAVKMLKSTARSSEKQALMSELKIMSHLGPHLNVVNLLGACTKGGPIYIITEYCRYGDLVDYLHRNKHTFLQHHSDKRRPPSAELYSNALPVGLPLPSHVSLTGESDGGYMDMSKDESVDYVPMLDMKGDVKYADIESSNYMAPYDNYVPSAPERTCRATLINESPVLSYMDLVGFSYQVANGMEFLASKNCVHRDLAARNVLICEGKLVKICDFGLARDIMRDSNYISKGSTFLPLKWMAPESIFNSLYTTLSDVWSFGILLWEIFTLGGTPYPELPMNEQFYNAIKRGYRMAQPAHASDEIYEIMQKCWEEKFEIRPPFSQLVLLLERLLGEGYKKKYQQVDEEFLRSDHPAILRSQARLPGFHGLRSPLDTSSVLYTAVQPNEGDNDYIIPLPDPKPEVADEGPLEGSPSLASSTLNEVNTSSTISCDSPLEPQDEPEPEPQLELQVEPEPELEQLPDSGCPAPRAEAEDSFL

## Cc1ccc(F)c(C(=O)Nc2cccc(C#Cc3cc(C(=O)N=S4(=O)CCOCC4)cnc3N)c2)c1 [Example 21, 6-amino-5-({3-[(2-fluoro-5-methylbenzoyl)amino]phenyl}ethynyl)-N-(4-oxido-1,4λ^4-oxathian-4-ylidene)nicotinamide]
[1]
  IC50: 24 nM

## Cc1ccoc1C(=O)Nc1cccc(C#Cc2cc(C(=O)N=S3(=O)CCOCC3)cnc2N)c1 [Example 20, 6-amino-5-({3-[(3-methyl-2-furoyl)amino]phenyl}ethynyl)-N-(4-oxido-1,4λ^4-oxathian-4-ylidene)nicotinamide]
[1]
  IC50: 51 nM
PDGFRβ
  IC50: 31 nM

## COc1cccc(NC(=O)c2cccc(C#Cc3cc(C(=O)N=S4(=O)CCOCC4)cnc3N)c2)c1 [Example 25, 6-amino-5-[(3-{[(3-methoxyphenyl)amino]carbonyl}phenyl)ethynyl]-N-(4-oxido-1,4λ^4-oxathian-4-ylidene)nicotinamide]
[1]
  IC50: 19 nM

## Cc1ccoc1C(=O)Nc1cccc(C#Cc2cncc(C(=O)N=S3(=O)CCN(C(N)=O)CC3)c2)c1 [Example 3, 1-({[5-({3-[(3-Methyl-2-furoyl)amino]phenyl}ethynyl)pyridin-3-yl]carbonyl}imino)-1λ^4,4-thiazinane-4-carboxamide 1-oxide]
[1]
  activity/potency at the PDGFRβ receptor (in words): greatest potency

## Cc1ccoc1C(=O)Nc1cccc(C#Cc2cncc(C(=O)N=S3(=O)CCOCC3)c2)c1 [Example 19, 5-({3-[(3-methyl-2-furoyl)amino]phenyl}ethynyl)-N-(4-oxido-1,4λ^4-oxathian-4-ylidene)nicotinamide]
[1]
  IC50: 23 nM
PDGFRβ
  IC50: 19 nM

## Cc1ccoc1C(=O)Nc1cccc(C#Cc2cc(C(=O)N=S3(=O)CCN(C(=O)OC(C)(C)C)CC3)cnc2N)c1 [Example 13, tert-Butyl 1-({[6-amino-5-({3-[(3-methyl-2-furoyl)amino]phenyl}ethynyl)pyridin-3-yl]carbonyl}imino)-1λ^4,4-thiazinane-4-carboxylate 1-oxide]
[1]
  activity/potency at the PDGFRβ receptor (in words): greatest potency

## Cc1ccc(F)c(NC(=O)c2cccc(C#Cc3cc(C(=O)N=S4(=O)CCOCC4)cnc3N)c2)c1 [Example 22, 6-amino-5-[(3-{[(2-fluoro-5-methylphenyl)amino]carbonyl}phenyl)ethynyl]-N-(4-oxido-1,4λ^4-oxathian-4-ylidene)nicotinamide]
PDGFRβ
  IC50: 17 nM

## Cc1ccc(F)c(C(=O)Nc2cccc(C#Cc3cc(C(=O)N=S4(=O)CCNCC4)cnc3N)c2)c1 [Example 17, 6-Amino-5-({3-[(2-fluoro-5-methylbenzoyl)amino]phenyl}ethynyl)-N-(1-oxido-1λ^4,4-thiazinan-1-ylidene)nicotinamide]
[1]
  activity/potency at the PDGFRβ receptor (in words): greatest potency
  IC50: 7 nM

## Cc1ccc(F)c(C(=O)Nc2cccc(C#Cc3cc(C(=O)N=S4(=O)CCN(C(=O)OC(C)(C)C)CC4)cnc3N)c2)c1 [Example 16, tert-butyl 1-({[6-Amino-5-({3-[(2-fluoro-5-methylbenzoyl)amino]phenyl}ethynyl)pyridin-3-yl]carbonyl}imino)-1λ^4,4-thiazinane-4-carboxylate 1-oxide]
[1]
  activity/potency at the PDGFRβ receptor (in words): greatest potency

## CC(C)(C)c1cc(NC(=O)c2cccc(C#Cc3cc(C(=O)N=S4(=O)CCOCC4)cnc3N)c2)no1 [Example 24, 6-amino-5-[(3-{[(5-tert-butylisoxazol-3-yl)amino]carbonyl}phenyl)ethynyl]-N-(4-oxido-1,4λ^4-oxathian-4-ylidene)nicotinamide]
[1]
  activity/potency at the PDGFRβ receptor (in words): best activity
  IC50: 10 nM

## Nc1ncc(C(=O)N=S2(=O)CCOCC2)cc1C#Cc1cccc(C(=O)Nc2ccc(Cl)c(C(F)(F)F)c2)c1 [Example 23, 6-amino-5-{[3-({[4-chloro-3-(trifluoromethyl)phenyl]amino}carbonyl)phenyl]ethynyl}-N-(4-oxido-1,4λ^4-oxathian-4-ylidene)nicotinamide]
[1]
  IC50: 13 nM

## Cc1ccc(F)c(C(=O)Nc2cccc(C#Cc3cc(C(=O)N=S4(=O)CCN(C(N)=O)CC4)cnc3N)c2)c1 [Example 18, 1-({[6-Amino-5-({3-[(2-fluoro-5-methylbenzoyl)amino]phenyl}ethynyl)pyridin-3-yl]carbonyl}imino)-1λ^4,4-thiazinane-4-carboxamide 1-oxide]
[1]
  IC50: 7 nM

## CCOC(=O)CNC(=O)N1CCS(=O)(=NC(=O)c2cncc(C#Cc3cccc(NC(=O)c4occc4C)c3)c2)CC1 [Example 11, Ethyl({[1-({[5-({3-[(3-methyl-2-furoyl)amino]phenyl}ethynyl)pyridin-3-yl]carbonyl}imino)-1-oxido-1λ^4,4-thiazinan-4-yl]carbonyl}amino)acetate]
[1]
  activity/potency at the PDGFRβ receptor (in words): greatest potency

From patent publication US9567324B2, “Substituted nicotinamide derivatives as kinase inhibitors” (Allergan, Inc., priority 2013, dated 2017)
